Where “and” joins values, the source holds several entries; their conditions need not be identical. Identical values can stand only once.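 1) Cells in 96-well plates. 2) Compound, 48 h, 5 concentrations. 3) Linear interpolation between surrounding doses. 4) Unreached endpoint = highest concentration. GI50: concentration for 50% inhibition of growth. The concentration for full growth arrest is given as TGI.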
Assays:
Experiment in all cases: NCI anticancer screen, dose series, 48 h
HOP-92 NSCLC = system: HOP-92 NSCLC
NCI-H226 lung = system: NCI-H226 lung
HT29 colon = system: HT29 colon
HS 578T breast = system: HS 578T breast
HOP-62 NSCLC = system: HOP-62 NSCLC
MOLT-4 leukemia = system: MOLT-4 leukemia
UACC-257 melanoma = system: UACC-257 melanoma
OVCAR-5 ovarian = system: OVCAR-5 ovarian

Row | SMILES | GI50 (HOP-92 NSCLC) | TGI (HOP-92 NSCLC) | GI50 (NCI-H226 lung) [µM] | TGI (NCI-H226 lung) [µM] | GI50 (HT29 colon) | TGI (HT29 colon) [µM] | GI50 (HS 578T breast) [µM] | TGI (HS 578T breast) [µM] | GI50 (HOP-62 NSCLC) | TGI (HOP-62 NSCLC) [µM] | GI50 (MOLT-4 leukemia) | TGI (MOLT-4 leukemia) [µM] | GI50 (UACC-257 melanoma) [µM] | TGI (UACC-257 melanoma) | GI50 (OVCAR-5 ovarian) [µM] | TGI (OVCAR-5 ovarian) [µM]
1 | ClC/C=C/CSc1ncnc2nc[nH]c12 | > 100 µM | > 100 µM | > 100 | > 100 | > 100 µM | > 100 | > 100 | > 100 | > 100 µM | > 100 | > 100 µM | > 100 | > 100 | > 100 µM | > 100 | > 100
2 | O=C(NCCN1CCOCC1)c1cc2c(Oc3ccc(NC(=O)C4(C(=O)Nc5ccc(F)cc5)CC4)cc3)ccnc2[nH]1 | 1.82 µM | 16.5 µM | 3.73 | 50.3 | 3 µM | 18.7 | 1.32 | > 71.1 | 3.22 µM | 31.5 | 3.48 µM | > 100 | 5.14 | 19.5 µM | 9.94 | > 100
3 | COc1oc(C2C/C(=C/C(C)=C/C(C)=C/C(C)=C/c3ccc([N+](=O)[O-])cc3)CO2)c(C)c(=O)c1C (stereo not drawn) |  | 40 µM |  | > 54.3 |  | > 50 |  | > 31.6 |  | > 100 |  | 10.2 |  | 66 µM |  | > 100
4 | O=C(Nc1c[nH]c(=O)[nH]c1=O)Oc1ccccc1 |  | > 100 µM |  | > 100 |  | > 100 |  | > 100 |  | > 100 |  | > 100 |  | > 100 µM |  | > 100
5 | O=C1c2ccc3c4c(ccc(c24)C(=O)N1CCCCO)C(=O)N(CCCCO)C3=O | 3.51 µM | 7.98 µM | 3.45 | 15.5 | 0.824 µM | 14.3 | 5.14 | 24 | 2.53 µM | 12.7 | 1.92 µM | 12.5 | 1.3 | 2.71 µM | 1.57 | 4.06
6 | COc1cc2c3c(c4cc(OC)c(OC)cc4c2cc1OC)CN1CCC[C@H]1C3 | 0.0366 µM and < 0.0105 µM | 1.34 µM and 0.695 µM |  | 1.06 | 0.034 µM and < 0.01 µM | 1.14 |  | > 29.2 | 0.0409 µM and < 0.0147 µM | 2.85 | 0.0382 µM and < 0.01 µM | > 34.9 |  | 0.338 µM and 0.937 µM |  | 0.681
7 | O=C1c2ccccc2-c2cn(Cc3ccccc3)c3cccc(c23)C1c1cccnc1 (stereo not drawn) | 2.74 µM | > 50 µM | > 50 | > 50 | 1.86 µM | > 50 | 2.92 | 45 | 3.44 µM | > 50 | 3.2 µM | > 50 | 11.2 | > 50 µM | > 50 | > 50
8 | Oc1ccccc1/C=N\NC(=S)Nc1ccc(F)cc1 | 0.962 µM | > 100 µM | 2.76 | > 32.5 | 4.49 µM | 25 | 5.14 | > 100 | 0.832 µM | > 65 | 0.586 µM | > 31.1 | 2.68 | > 65.3 µM | 4.63 | > 100
9 | Cc1cnc(C(=O)Nc2nc3ccc(S(=O)(=O)Nc4ccc(C(C)(C)C)cc4)cc3[nH]2)cn1 | 0.553 µM | 7.24 µM | 0.723 | 7.35 | 0.388 µM | 4.23 | 0.422 | 10.6 | 0.785 µM | 18.8 | 0.562 µM | 5.9 | 2.39 | 22.7 µM | 1.41 | 10.7
10 | CNC(=O)c1sc(-n2cnc3cc(OC)c(OC)cc32)cc1OCc1ccccc1C(F)(F)F | 2.2 µM | > 25 µM | 22.9 | > 25 | > 25 µM | > 25 | > 25 | > 25 | > 25 µM | > 25 | > 23.6 µM | > 25 | > 25 | > 25 µM | > 25 | > 25
11 | N#Cc1ccc2c(-c3ccnc(NC4CC4)n3)c(-c3ccc(F)cc3)nn2c1 | > 25 µM | > 25 µM | > 25 | > 25 | > 25 µM | > 25 | > 25 | > 25 | > 25 µM | > 25 | > 25 µM | > 25 | > 25 | > 25 µM | > 25 | > 25
12 | CCCCCn1sc(=O)n(Cc2ccc(CNC(=O)C(C)c3ccc(CC(C)C)cc3)cc2)c1=O (stereo not drawn) | 0.577 µM | 2.09 µM | 1.3 | 2.67 | 0.949 µM | 2.55 | 1.56 | 4.36 | 1.41 µM | 3.35 | 0.848 µM | > 22.5 | 1.48 | 3.02 µM | 1.56 | 3.19
13 | O=C(CC1(O)C(=O)Nc2ccc(Cl)cc21)c1ccc(C(=O)NCC2CCC3(CC2)OOC2(CCCCC2)OO3)cc1 (stereo not drawn) | 0.509 µM | 2.08 µM | 13.1 | 41.2 | 3.19 µM | 11.2 | 3.44 | > 28.2 | 0.445 µM | 2 | 2.05 µM | 5.09 | 6.48 | 24.2 µM | 4.21 | 30.9
